This test addresses T1, DGAT1 (Homo sapiens, UniProt O75907).
T1 construct: host or cells: HepG2 cell homogenate (supernatant after sonication and 2000×g centrifugation)
T1 sequence (O75907 1-488): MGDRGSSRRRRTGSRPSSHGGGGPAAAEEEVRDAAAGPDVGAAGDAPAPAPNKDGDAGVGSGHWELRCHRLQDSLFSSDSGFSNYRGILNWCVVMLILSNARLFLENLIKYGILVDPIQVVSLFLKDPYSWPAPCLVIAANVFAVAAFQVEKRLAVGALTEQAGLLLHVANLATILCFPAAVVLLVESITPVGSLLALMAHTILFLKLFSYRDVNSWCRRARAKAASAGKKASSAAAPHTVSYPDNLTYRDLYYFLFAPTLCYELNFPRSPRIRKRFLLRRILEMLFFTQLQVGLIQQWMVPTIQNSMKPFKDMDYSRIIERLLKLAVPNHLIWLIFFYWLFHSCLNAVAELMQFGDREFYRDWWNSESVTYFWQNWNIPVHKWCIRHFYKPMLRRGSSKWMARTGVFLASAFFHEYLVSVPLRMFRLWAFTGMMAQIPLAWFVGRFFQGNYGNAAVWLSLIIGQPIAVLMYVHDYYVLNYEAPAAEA
Briefly: Assay for inhibition of DGAT1 activity (IC50), in vitro enzymatic assay using homogenates of HepG2 cell line. Conditions: inhibitory activity against DGAT1; HepG2 protein (25 μg), 1,2-dioleoyl-sn-glycerol (30 μM), 14C oleoyl coenzyme A (10 μM), room temperature, 60 mins. Type of test: biochemical. The method, then:
In order to identify DGAT1 inhibitors, in vitro enzymatic assays were performed by using homogenates of HepG2 cell line (ATCC, USA, HB-8065). Briefly stated, HepG2 cells were inoculated in 10% FBS-supplemented medium at 1.0×10^7 cells/well, cultured at 37° C., and harvested 72 hrs later. The harvested cells were lysed by ultrasonic treatment, and centrifuged for at 4° C. (2000×g, 10 mins) to remove any uncracked cells and impurities. The supernatant thus formed was obtained, and stored at −70° C. after its protein contents were quantitatively analyzed.
DGAT1 activation was assayed by a modification of the method described by Coleman (Methods in Enzymology, 1992, 209, 98-102). The compound of the present invention ([…]) was incubated with HepG2 protein (25 μg), MgCl2 (150 mM) and 1,2-dioleoyl-sn-glycerol (30 μM) in a total assay volume of 200 μL in plastic tubes.
The reaction was started by adding ^14C oleoyl coenzyme A (10 μM final concentration) and incubated at room temperature for 60 mins. The reaction was ended when a mixed solution (300 μL) of 2-propanol and heptane (7:1) was added thereto. Radioactive triolein product was separated into the organic phase by adding heptane (200 μL) and 1.0 M carbonate buffer (200 μL, pH 9.5). DGAT1 activity was quantified by counting aliquots of the upper heptane layer by liquid […].

One may read the IC50 as the concentration that gives 50% inhibition. A higher IC50 goes with a need for much substance. For `Cc1ccc(NC(=O)Nc2ccc(-c3ncnc4c(-c5ccc(CCC(=O)O)cc5)csc34)cc2)cc1` [Example 21, 3-(4-(4-(4-(3-p-tolylureido)phenyl)thieno[3,2-d]pyrimidin-7-yl)phenyl)propanoic acid], the IC50 is < 1 nM.
As to `COc1ccc(NC(=O)Nc2ccc(-c3ncnc4c(-c5ccc(CCC(=O)O)cc5)csc34)cc2)cc1` [Example 15, 3-(4-(4-(4-(3-(4-methoxyphenyl)ureido)phenyl)thieno[3,2-d]pyrimidin-7-yl)phenyl)propanoic acid], the IC50 was < 5 nM.

Values taken from US20140163226A1, “NOVEL PYRIMIDINE DERIVATIVE AND PHARMACEUTICAL COMPOSITION INCLUDING SAME AS AN ACTIVE INGREDIENT” (HANMI PHARMACEUTICAL CO., LTD., priority 2011, published 2014).
